The text below walks through data of ChEMBL document CHEMBL5120948, “Ynamide Electrophile for the Profiling of Ligandable Carboxyl Residues in Live Cells and the Development of New Covalent Inhibitors” (J Med Chem, 2022).

As a reminder, the inhibition is how much of the control response was suppressed. As a reminder, the IC50 is the concentration at which inhibition is half-maximal. A lower IC50 goes with inhibition by little substance.

The source made the active and inactive calls. The calls are words filed in the database; no cut-off is given here. Bounds are passed on as bounds.

Series [1] is described as follows: Stability of the compound in DMSO/H2O solution measured after 7 days by 1H-NMR analysis. The following applies: 168 h; time 7 day. Type of series: physicochemical.
Series [2] in a line: Binding affinity to glutamic acid in aqueous solution measured within 3 hrs by HPLC analysis.
Series [3] has as its target T1, Albumin (Bos taurus, UniProt P02769). Nature of the series: Binding affinity to bovine serum albumin assessed as increase in fluorescence intensity at 10 uM measured after 4 hrs by TAMRA-N3 based In-gel fluorescence scanning analysis. The following applies: cattle.
Series [4] concerns the target T1, Albumin. Nature of the series: Binding affinity to bovine serum albumin assessed as increase in fluorescence intensity at 5 uM measured after 30 mins by TAMRA-N3 based In-gel fluorescence scanning analysis. As to conditions: cattle, 0.5 h.
Series [5] addresses T1, Albumin. Briefly: Binding affinity to bovine serum albumin assessed as increase in fluorescence intensity at 10 uM measured after 4 hrs in presence of N,4-Dimethyl-N-(phenylethynyl)benzenesulfonamide by TAMRA-N3 based In-gel fluorescence scanning analysis. As to conditions: cattle.
For a further series, the species on record is Homo sapiens. Briefly: Binding affinity to beta-amylase (unknown origin) measured after 30 mins by TAMRA-N3 based In-gel fluorescence scanning analysis. As to conditions: dose 5-50 µM.
For the next series, the target named is Catalase (Homo sapiens) (UniProt P04040). Briefly: Binding affinity to catalase (unknown origin) measured after 30 mins by TAMRA-N3 based In-gel fluorescence scanning analysis. As to conditions: dose 5-50 µM.
Chain of Catalase (Homo sapiens) (P04040 whole entry): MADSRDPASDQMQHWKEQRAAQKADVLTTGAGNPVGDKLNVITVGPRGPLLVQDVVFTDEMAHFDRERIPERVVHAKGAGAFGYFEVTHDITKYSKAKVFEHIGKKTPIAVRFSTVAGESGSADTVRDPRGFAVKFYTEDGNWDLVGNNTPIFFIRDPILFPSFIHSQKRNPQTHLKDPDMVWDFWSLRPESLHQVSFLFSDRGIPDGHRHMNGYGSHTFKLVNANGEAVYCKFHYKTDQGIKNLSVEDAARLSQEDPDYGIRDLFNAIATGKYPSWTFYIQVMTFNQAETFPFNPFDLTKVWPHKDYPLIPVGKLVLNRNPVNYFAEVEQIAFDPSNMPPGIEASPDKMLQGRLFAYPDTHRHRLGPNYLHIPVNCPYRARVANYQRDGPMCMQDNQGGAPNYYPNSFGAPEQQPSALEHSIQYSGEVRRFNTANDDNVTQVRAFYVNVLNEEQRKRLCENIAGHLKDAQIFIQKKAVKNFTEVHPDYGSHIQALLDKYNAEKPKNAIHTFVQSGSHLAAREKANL
Series [6] deals with GTPase KRas (Homo sapiens), P01116 [G12D]. Nature of the series: Binding affinity to KRAS G12D mutant (unknown origin) measured after 30 mins by TAMRA-N3 based In-gel fluorescence scanning analysis. As to conditions: dose 5-50 µM.
Chain of GTPase KRas (Homo sapiens), P01116 [G12D] (P01116 whole entry G12D, looked up): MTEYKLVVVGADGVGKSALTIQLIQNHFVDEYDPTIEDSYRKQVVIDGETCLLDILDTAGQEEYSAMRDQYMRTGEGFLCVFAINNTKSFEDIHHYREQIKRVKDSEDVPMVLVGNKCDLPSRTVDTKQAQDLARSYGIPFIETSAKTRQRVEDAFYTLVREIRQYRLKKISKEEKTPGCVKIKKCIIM
Series [7] concerns the target Aldehyde dehydrogenase 1A1 (Homo sapiens) (UniProt P00352). Briefly: Binding affinity to ALDH1 in human HepG2 cells at 100 uM incubated for 8 hrs by pull-down/Western blot analysis. It is filed as cell-based. For orientation: In western blotting, separated proteins are transferred to a membrane and probed.
In series [8] the target is Aldehyde dehydrogenase, mitochondrial (Homo sapiens) (UniProt P05091). Nature of the series: Binding affinity to ALDH2 in human HepG2 cells at 100 uM incubated for 8 hrs by pull-down/Western blot analysis. It is filed as cell-based.
Series [9] has as its target Dual specificity mitogen-activated protein kinase kinase 2 (Homo sapiens) (UniProt P36507). Briefly: Binding affinity to MEK2 in human HepG2 cells at 100 uM incubated for 8 hrs by pull-down/Western blot analysis. Type of series: cell-based.
The target of series [10] is Delta(3,5)-Delta(2,4)-dienoyl-CoA isomerase, mitochondrial (Homo sapiens) (UniProt Q13011). Briefly: Binding affinity to ECH1 in human HepG2 cells at 100 uM incubated for 8 hrs by pull-down/Western blot analysis. Type of series: cell-based.
The test system of series [11] is HepG2. Briefly: Binding affinity to G3P in human HepG2 cells at 100 uM incubated for 8 hrs by pull-down/Western blot analysis. Type of series: cell-based.
The target in series [12] is Dual specificity mitogen-activated protein kinase kinase 2 (Homo sapiens) (UniProt P36507). Briefly: Stabilization of MEK2 in human HepG2 cells assessed as increase in thermal stability at 50 uM incubated for 3 hrs by cellular thermal shift assay. It is filed as cell-based.
Chain of Dual specificity mitogen-activated protein kinase kinase 2 (Homo sapiens) (P36507 whole entry): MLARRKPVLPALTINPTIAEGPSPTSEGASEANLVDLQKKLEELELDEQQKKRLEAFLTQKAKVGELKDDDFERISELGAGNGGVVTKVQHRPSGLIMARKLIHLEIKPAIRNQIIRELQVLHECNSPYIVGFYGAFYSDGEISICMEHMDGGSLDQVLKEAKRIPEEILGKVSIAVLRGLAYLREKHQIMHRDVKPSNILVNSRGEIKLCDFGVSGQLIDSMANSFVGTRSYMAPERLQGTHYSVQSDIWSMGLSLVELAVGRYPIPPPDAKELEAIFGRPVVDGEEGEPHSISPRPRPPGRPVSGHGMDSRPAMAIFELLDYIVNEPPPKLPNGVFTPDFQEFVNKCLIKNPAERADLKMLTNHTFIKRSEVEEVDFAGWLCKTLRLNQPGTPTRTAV
For series [13], the system named is HepG2. Nature of the series: Inhibition of ERK phosphorylation in human HepG2 cells at 5 to 40 uM by Western blot analysis. It is filed as cell-based. The following applies: dose 5-40 µM.
Series [14] deals with Epidermal growth factor receptor (Homo sapiens, UniProt P00533, L858R). Briefly: Inhibition of EGFR L858R mutant (unknown origin) using peptide substrate by FRET assay.
For a further series, the system named is BaF3. Briefly: Growth inhibition of mouse BaF3 cells harbouring EGFR L858R mutant incubated for 72 hrs by CCK8 assay. It is filed as functional, cell-based. As to conditions: BaF3, 72 h.
Series [15] is described as follows: Growth inhibition of mouse Ba/F3 EGFR cells incubated for 72 hrs by CCK8 assay. Type of series: functional, cell-based. In general terms: Formazan colour is commonly taken as a measure of viable cells.
The test system of series [16] is NCI-H3255. Briefly: cells. The following applies: Homo sapiens, NCI-H3255, 72 h. Type of series: functional, cell-based.
Description: Growth inhibition of human NCI-H3255 cells harbouring EGFR L858R mutant incubated for 72 hrs by CCK8 assay
In the next series the test system is A549. Briefly: cells. The following applies: Homo sapiens, A549, 72 h. Type of series: functional, cell-based.
Series [17] relates to Epidermal growth factor receptor (Homo sapiens), P00533 [L858R]. Nature of the series: Binding affinity to EGFR L858R mutant in human NCI-H3255 cells at 10 uM incubated for 8 hrs by pull-down/Western blot analysis. It is filed as cell-based.
The subject of series [18] is Epidermal growth factor receptor (Homo sapiens), P04626+P00533+Q15303+P21860 [L858R]. Briefly: Binding affinity to EGFR L858R mutant in mouse BaF3 cells at 10 uM incubated for 8 hrs by pull-down/Western blot analysis. Type of series: cell-based.
Series [19] concerns Epidermal growth factor receptor (Homo sapiens), P00533 [L858R]. Briefly: Binding affinity to EGFR L858R mutant in human NCI-H3255 cells assessed as increase in thermal stability at 0.5 uM incubated for 3 hrs by cellular thermal shift assay. It is filed as cell-based.
The subject of series [20] is NCI-H3255. Briefly: Inhibition of colony formation in human NCI-H3255 cells at 1.1 uM by Giemsa staining based assay. Type of series: functional, cell-based.
The target of series [21] is Epidermal growth factor receptor (Homo sapiens) (UniProt P00533). Briefly: Inhibition of EGFR phosphorylation in human NCI-H3255 cells at 0.22 to 20 uM. Type of series: cell-based. As to conditions: dose 0.22-20 µM.
Series [22] shares this target. Nature of the series: Inhibition of EGFR in human NCI-H3255 cells assessed as decrease in AKT phosphorylation level at 0.22 to 20 uM. Type of series: cell-based. The following applies: dose 0.22-20 µM.
Series [23] has the same target. Nature of the series: Inhibition of EGFR in human NCI-H3255 cells assessed as decrease in ERK phosphorylation level at 0.22 to 20 uM. It is filed as cell-based. The following applies: dose 0.22-20 µM.
Series [24] has as its target ATP-dependent translocase ABCB1 (Homo sapiens, UniProt P08183). Briefly: Binding affinity to MDR1 in human HepG2 cells at 10 uM incubated for 8 hrs by pull-down/LC-MS/MS analysis. Type of series: cell-based. As to conditions: hepg2, 8 h.
Series [25] addresses Leucine-rich PPR motif-containing protein, mitochondrial (Homo sapiens) (UniProt P42704). Briefly: Binding affinity to LPPRC in human HepG2 cells at 10 uM incubated for 8 hrs by pull-down/LC-MS/MS analysis. Type of series: cell-based.
Series [26] addresses Glutathione S-transferase 3, mitochondrial (Homo sapiens) (UniProt O14880). Nature of the series: Binding affinity to MGST3 in human HepG2 cells at 10 uM incubated for 8 hrs by pull-down/LC-MS/MS analysis. Type of series: cell-based.
The target of series [27] is Ubiquitin-like modifier-activating enzyme 1 (Homo sapiens) (UniProt P22314). Nature of the series: Binding affinity to UBA1 in human HepG2 cells at 10 uM incubated for 8 hrs by pull-down/LC-MS/MS analysis. It is filed as cell-based.
Chain of Ubiquitin-like modifier-activating enzyme 1 (Homo sapiens) (P22314 whole entry): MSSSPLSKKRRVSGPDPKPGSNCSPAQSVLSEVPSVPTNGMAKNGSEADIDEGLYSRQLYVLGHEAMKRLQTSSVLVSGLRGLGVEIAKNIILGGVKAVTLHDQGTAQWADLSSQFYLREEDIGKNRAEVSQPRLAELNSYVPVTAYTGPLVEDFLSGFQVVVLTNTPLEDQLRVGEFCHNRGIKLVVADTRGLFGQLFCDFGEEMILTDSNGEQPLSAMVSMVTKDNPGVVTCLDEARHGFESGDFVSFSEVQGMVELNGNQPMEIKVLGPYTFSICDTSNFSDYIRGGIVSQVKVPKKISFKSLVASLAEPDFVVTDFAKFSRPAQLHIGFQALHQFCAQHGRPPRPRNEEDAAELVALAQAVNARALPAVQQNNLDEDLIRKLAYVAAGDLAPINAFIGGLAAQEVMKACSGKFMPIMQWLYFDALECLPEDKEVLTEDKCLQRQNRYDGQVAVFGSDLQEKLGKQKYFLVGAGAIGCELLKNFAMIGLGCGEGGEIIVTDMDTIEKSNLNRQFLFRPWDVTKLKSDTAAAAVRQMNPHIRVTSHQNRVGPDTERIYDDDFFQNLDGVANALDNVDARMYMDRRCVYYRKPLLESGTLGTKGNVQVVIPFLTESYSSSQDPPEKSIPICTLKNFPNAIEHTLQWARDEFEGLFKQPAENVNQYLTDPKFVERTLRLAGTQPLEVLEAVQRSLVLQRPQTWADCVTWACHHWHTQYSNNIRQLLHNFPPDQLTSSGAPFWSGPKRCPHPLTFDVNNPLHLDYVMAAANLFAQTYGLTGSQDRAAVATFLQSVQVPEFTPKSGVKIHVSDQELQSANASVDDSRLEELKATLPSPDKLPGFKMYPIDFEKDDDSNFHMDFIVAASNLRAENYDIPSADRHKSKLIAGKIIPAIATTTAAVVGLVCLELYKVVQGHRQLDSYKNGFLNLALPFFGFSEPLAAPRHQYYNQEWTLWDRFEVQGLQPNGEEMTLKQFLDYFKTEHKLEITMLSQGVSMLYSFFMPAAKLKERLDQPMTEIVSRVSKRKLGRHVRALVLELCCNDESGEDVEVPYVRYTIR
Series [28] relates to NCI-H3255. Nature of the series: Inhibition of colony formation in human NCI-H3255 cells at 10 uM by Giemsa staining based assay. It is filed as functional.

T1 sequence (P02769 whole entry): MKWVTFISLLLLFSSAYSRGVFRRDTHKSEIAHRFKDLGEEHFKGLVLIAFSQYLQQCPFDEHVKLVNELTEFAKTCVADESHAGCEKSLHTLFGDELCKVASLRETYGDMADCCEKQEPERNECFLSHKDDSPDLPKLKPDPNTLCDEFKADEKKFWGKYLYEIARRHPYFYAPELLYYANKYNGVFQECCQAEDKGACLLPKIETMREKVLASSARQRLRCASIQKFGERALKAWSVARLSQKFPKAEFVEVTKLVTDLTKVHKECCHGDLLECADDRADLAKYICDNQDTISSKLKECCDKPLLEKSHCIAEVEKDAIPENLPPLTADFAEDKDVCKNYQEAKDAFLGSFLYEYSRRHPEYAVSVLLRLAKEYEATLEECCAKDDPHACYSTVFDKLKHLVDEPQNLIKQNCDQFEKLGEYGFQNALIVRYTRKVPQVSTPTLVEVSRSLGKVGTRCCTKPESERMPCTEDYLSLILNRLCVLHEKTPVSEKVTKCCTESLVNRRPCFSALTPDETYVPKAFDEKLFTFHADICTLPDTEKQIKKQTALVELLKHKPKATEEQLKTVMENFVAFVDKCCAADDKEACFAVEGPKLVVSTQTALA
Chain of Aldehyde dehydrogenase 1A1 (Homo sapiens) (P00352 whole entry): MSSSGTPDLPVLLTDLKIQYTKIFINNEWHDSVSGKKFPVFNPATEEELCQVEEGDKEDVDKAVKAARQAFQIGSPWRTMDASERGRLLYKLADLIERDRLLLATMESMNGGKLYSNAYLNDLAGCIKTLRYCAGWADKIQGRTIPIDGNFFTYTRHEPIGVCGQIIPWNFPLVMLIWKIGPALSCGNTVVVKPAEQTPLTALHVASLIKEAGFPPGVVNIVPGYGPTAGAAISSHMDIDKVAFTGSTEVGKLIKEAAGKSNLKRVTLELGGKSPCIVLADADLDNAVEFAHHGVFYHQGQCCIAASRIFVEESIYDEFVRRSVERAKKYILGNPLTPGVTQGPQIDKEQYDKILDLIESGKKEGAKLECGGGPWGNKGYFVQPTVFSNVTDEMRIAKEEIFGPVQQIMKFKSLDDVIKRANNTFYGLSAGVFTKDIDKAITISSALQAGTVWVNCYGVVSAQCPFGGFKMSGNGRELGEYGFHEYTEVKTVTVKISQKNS
Chain of ATP-dependent translocase ABCB1 (P08183 whole entry): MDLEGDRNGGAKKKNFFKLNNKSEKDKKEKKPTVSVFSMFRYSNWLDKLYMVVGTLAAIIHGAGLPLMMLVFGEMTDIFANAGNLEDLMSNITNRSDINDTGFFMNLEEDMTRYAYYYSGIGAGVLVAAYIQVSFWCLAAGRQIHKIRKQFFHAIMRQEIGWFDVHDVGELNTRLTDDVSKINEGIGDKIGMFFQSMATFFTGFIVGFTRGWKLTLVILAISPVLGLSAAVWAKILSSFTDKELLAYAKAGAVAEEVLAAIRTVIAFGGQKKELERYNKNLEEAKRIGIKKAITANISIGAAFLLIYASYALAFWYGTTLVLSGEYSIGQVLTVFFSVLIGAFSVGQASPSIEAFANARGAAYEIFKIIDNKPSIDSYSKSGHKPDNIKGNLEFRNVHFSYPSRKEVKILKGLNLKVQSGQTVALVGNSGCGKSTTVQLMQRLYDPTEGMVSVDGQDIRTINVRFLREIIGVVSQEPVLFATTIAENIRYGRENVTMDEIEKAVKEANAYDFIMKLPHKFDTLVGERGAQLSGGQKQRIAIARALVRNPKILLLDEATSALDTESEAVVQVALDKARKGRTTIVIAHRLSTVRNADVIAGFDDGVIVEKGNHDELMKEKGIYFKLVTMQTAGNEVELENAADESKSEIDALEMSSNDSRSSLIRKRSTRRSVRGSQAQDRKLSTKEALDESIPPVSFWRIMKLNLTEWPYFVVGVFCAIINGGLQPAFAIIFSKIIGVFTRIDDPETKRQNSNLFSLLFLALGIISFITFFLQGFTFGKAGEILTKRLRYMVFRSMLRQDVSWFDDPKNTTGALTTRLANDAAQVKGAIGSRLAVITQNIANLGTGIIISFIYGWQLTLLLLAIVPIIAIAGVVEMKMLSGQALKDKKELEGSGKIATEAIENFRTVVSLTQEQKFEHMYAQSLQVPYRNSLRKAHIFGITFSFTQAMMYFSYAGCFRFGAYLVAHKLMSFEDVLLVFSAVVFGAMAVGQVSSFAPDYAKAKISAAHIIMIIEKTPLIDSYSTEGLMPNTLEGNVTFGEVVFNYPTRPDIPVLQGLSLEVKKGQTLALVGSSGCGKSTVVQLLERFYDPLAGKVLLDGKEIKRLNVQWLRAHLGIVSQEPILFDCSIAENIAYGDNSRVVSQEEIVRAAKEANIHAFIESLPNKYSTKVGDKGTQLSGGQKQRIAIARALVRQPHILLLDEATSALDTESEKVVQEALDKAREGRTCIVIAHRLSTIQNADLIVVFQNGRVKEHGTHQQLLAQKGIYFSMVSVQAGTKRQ
Chain of Glutathione S-transferase 3, mitochondrial (Homo sapiens) (O14880 whole entry): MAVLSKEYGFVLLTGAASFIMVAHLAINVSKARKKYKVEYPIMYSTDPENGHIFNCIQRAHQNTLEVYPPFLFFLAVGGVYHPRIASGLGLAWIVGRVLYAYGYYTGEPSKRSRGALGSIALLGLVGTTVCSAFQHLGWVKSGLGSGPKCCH
Description for A549: Growth inhibition of human A549 cells expressing EGFR incubated for 72 hrs by CCK8 assay

Consider `C#Cc1ccc(S(=O)(=O)N(C)C#C)cc1`, for which, in [1], the Stability entry is given as “Stable”. Besides, the result (in series [2]; in the series listed under Homo sapiens; on Catalase (Homo sapiens); in [6]; in series [7]; in [8]) was Active. The outcome (in [9]; in series [10]; in the series on HepG2 [11]; in series [12]) was Active. Also, the result at Albumin [3], on Albumin [4] and on Albumin [5] was Active. The inhibition result in the series on HepG2 [13] is “Active”.

With `C#Cc1ccc(OCc2ccc(S(=O)(=O)N(C)C#C)cc2)cc1`, the result at Albumin [3] was Active.

In the case of `C#Cc1cccc(Oc2ncnc3ccc(OCc4ccc(S(=O)(=O)N(C)C#C)cc4)cc23)c1`, the outcome (on Albumin [3]; in series [24]) was Active. In addition, the IC50 in series [14] turned out to be 5.67 µM; in the series on BaF3, 1710 nM; in series [15], 6.48 µM; in the series with NCI-H3255 [16], 1.89 µM; in the series with A549 it was 7.61 µM. In addition, the result in series [17], in series [18], in series [19], in series [25], in series [26] and in series [27] was Active. Further, the inhibition result (with NCI-H3255 [20]; in series [21]; in series [22]; in [23]) was “Active” throughout. Further, in the series with NCI-H3255 [28], the inhibition at 10 µM was determined as 100%.

As to `C#Cc1cccc(Oc2ncnc3ccc(OCc4ccc(S(=O)(=O)NC)cc4)cc23)c1`, the IC50 with NCI-H3255 [16] was 7.8 µM; in the series with A549, more than 50 µM.
